Measurements reported in patent US9556099B2 (INDENA S.P.A., priority 2013, dated 2017).

What was measured:
[1] = Plasma and brain levels in mice treated subacutely by intraperitoneal administration (HPLC/MS/MS); details: 20 mg/kg i.p. twice a day for 4 days, mean±S.E. of 4 animals
Experimental: In mice treated subacutely (twice a day for 4 days) by intraperitoneal administration at the dose of 20 mg/kg of the products according to the invention, their brain and plasma levels were determined by a combined HPLC/MS/MS analysis technique developed on the basis of a method already described by Keller J. H. et al. (Anal. Chem. 75, 6084, 2003).
Each value is the mean±S.E. of 4 animals. Time 0 corresponds to the 14th hour after the previous treatment

[2] = system: neuropathological damage induced by Aβ fibrils; assay: Neuropathological damage induced by Aβ fibrils in vivo (stereotactic injection into the dorsal hippocampus); details: male rats, product co-injected with 80 μg Aβ fibrils into the dorsal hippocampus; for Density of reactive astrocytes: control 11 ± 4, fibrils only 39 ± 7; for Measurement of astrocyte soma: control 101 ± 18, fibrils only 310 ± 16
Experimental: To evaluate the potential neuroprotective effect of the products according to the invention, male rats were treated stereotactically in the dorsal hippocampus with 80 μg of Aβ fibrils in the presence or absence of the products.

[3] = time 0 h (14th hour after the previous treatment)

Row | Compound | Brain [1, 3] | Brain/Plasma [1, 3] | Plasma [1, 3] | Brain ([1]; time 1 h) | Brain/Plasma ([1]; time 1 h) | Plasma ([1]; time 1 h) | Brain ([1]; time 2 h) | Brain/Plasma ([1]; time 2 h) | Plasma ([1]; time 2 h) | Brain ([1]; time 4 h) | Brain/Plasma ([1]; time 4 h) | Plasma ([1]; time 4 h) | Brain ([1]; time 6 h) | Brain/Plasma ([1]; time 6 h) | Plasma ([1]; time 6 h) | Density of reactive astrocytes [2] | Measurement of astrocyte soma [2]
1 | CC(C)=CCC[C@]1(C)[C@@H](CC=C(C)C)C[C@@]2(CC=C(C)C)C(=O)[C@]1(C(=O)C(C)C)C(=O)C(CC=C(C)C)=C2O [Hyperforin, hyperforin] | 15.2 ± 16.1 ng/g | 1.89 ± 0.91% | 624.5 ± 81.8 ng/mL | 21.1 ± 7.4 ng/g | 1.24 ± 0.75% | 1547.2 ± 226.6 ng/mL | 23.2 ± 7.8 ng/g | 1.32 ± 0.82% | 1421.3 ± 235.4 ng/mL | 32.3 ± 8.1 ng/g | 1.91 ± 0.91% | 1275.4 ± 212.8 ng/mL | 35.6 ± 8.8 ng/g | 2.12 ± 1.12% | 1192.6 ± 196.5 ng/mL | 37 ± 6 GFAP^+ cell./4 × 10^3 μm^2 | 306 ± 14 arbitrary unit
2 | deisopropyl-dehydro tetrahydro adhyperforin | – | – | – | – | – | – | – | – | – | – | – | – | – | – | – | 24 ± 4 GFAP^+ cell./4 × 10^3 μm^2 | 117 ± 9 arbitrary unit
